{"source": "paper PMC6138237", "about": "“Machine intelligence decrypts β-lapachone as an allosteric 5-lipoxygenase inhibitor” (Chemical Science, 2018)", "key": {"PLK1": {"biological_target": "PLK1 (Homo sapiens, UniProt P53350)", "sequence (P53350 whole entry)": "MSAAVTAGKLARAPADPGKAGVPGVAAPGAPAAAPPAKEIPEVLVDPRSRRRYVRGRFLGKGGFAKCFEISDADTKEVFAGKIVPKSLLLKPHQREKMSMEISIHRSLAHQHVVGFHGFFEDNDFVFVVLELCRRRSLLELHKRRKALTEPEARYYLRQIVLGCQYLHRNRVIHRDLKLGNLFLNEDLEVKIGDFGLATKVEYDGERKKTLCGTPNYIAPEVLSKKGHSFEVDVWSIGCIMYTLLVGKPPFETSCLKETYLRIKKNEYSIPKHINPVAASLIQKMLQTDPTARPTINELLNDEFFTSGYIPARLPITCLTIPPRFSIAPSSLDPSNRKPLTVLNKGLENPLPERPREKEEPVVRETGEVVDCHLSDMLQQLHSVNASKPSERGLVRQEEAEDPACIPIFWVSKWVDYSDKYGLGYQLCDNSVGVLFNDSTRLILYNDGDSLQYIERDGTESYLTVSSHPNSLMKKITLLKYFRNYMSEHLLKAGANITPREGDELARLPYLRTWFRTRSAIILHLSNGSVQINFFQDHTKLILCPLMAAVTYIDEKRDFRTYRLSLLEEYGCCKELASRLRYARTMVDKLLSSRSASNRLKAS", "assay": "ExpresS Diversity Kinase Profile, Cerep (LANCE): PLK1", "type": "biochemical"}, "FGFR2": {"biological_target": "FGFR2 (Homo sapiens, UniProt P21802)", "sequence (P21802 22-821)": "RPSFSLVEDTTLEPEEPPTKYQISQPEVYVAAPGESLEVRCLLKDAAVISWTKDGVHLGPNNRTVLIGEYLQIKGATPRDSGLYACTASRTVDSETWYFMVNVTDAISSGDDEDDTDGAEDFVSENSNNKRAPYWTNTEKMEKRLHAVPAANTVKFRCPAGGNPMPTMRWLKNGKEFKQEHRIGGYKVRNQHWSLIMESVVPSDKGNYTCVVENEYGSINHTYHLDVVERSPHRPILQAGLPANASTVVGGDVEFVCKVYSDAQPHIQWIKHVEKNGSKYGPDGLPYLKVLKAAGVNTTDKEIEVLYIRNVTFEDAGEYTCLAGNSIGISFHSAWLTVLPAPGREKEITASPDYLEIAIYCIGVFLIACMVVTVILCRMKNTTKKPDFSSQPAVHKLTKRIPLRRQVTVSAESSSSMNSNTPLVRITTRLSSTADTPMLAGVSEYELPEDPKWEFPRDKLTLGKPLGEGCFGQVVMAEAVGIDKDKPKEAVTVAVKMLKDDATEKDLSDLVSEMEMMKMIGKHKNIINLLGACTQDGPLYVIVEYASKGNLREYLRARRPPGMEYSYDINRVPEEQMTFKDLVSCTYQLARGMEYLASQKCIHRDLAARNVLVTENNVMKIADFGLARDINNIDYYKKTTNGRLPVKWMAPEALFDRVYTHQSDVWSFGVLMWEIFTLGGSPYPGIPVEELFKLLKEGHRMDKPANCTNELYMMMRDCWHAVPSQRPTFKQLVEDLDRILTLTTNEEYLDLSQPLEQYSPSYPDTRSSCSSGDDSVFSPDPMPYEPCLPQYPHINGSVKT", "assay": "ExpresS Diversity Kinase Profile, Cerep (LANCE): FGFR2", "type": "biochemical"}, "TRKA": {"biological_target": "TRKA (Homo sapiens, UniProt P04629)", "sequence (P04629 33-796)": "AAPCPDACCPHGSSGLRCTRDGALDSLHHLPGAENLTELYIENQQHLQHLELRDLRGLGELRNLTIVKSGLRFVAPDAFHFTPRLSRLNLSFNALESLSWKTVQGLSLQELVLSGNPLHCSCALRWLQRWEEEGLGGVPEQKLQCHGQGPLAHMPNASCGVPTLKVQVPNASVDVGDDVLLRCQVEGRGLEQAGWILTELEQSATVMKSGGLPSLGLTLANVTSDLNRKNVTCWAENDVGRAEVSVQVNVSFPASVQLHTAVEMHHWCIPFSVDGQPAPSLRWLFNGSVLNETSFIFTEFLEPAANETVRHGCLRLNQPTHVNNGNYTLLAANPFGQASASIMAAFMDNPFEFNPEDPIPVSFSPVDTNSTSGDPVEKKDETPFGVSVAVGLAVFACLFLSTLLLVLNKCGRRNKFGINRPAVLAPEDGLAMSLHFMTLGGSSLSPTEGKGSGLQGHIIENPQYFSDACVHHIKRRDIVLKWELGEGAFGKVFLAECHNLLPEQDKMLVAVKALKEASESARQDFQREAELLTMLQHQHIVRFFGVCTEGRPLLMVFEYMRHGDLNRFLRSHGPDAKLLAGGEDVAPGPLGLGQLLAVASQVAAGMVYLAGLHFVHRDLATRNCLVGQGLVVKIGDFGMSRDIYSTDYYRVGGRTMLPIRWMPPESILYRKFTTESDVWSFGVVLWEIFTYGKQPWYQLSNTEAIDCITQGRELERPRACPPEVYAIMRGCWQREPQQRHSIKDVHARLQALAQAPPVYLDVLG", "assay": "ExpresS Diversity Kinase Profile, Cerep (LANCE): TRKA", "type": "biochemical"}, "EP2": {"biological_target": "EP2 (Homo sapiens, UniProt P43116)", "sequence (P43116 whole entry)": "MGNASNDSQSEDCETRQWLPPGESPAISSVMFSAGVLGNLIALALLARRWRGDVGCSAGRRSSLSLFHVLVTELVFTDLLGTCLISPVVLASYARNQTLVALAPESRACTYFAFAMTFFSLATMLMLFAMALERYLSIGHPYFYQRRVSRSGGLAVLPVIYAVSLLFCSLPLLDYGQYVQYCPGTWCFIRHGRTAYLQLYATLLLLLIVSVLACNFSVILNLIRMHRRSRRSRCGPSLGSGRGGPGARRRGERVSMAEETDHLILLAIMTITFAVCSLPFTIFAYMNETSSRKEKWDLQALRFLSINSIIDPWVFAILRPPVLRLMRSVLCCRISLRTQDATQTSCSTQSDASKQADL", "assay": "EP2 functional antagonist assay, Cerep (PGE2 100 nM, cAMP)"}, "EphA3": {"biological_target": "T1, EphA3 (Homo sapiens, UniProt P29320)", "T1 sequence (P29320 21-983)": "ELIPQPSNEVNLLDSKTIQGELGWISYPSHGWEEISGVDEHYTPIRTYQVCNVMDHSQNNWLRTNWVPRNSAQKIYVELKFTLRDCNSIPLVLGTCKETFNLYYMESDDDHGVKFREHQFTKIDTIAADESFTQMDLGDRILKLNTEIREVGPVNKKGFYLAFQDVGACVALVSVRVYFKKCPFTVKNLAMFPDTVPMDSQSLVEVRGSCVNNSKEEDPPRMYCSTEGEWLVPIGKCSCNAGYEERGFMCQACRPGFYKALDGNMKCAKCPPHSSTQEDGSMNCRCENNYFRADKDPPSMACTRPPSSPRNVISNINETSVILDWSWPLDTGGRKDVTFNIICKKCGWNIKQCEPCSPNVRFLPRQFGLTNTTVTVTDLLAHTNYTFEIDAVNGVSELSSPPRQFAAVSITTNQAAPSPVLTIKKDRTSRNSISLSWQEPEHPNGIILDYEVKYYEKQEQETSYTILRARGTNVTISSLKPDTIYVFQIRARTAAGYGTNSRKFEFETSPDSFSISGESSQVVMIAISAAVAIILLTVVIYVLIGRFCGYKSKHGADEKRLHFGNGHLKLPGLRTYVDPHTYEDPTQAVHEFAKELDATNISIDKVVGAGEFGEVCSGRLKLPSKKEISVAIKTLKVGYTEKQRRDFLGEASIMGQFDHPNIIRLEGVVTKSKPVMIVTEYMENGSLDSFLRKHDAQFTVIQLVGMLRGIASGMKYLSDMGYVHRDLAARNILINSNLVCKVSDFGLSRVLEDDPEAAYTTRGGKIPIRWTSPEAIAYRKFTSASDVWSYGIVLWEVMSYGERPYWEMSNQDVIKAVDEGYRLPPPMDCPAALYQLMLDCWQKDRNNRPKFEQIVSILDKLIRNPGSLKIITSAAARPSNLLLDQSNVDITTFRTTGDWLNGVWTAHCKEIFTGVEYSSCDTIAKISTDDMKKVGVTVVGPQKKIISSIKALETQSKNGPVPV", "assay": "ExpresS Diversity Kinase Profile, Cerep (LANCE): EphA3", "type": "biochemical"}, "PAK4": {"biological_target": "PAK4 (Homo sapiens, UniProt O96013)", "sequence (O96013 whole entry)": "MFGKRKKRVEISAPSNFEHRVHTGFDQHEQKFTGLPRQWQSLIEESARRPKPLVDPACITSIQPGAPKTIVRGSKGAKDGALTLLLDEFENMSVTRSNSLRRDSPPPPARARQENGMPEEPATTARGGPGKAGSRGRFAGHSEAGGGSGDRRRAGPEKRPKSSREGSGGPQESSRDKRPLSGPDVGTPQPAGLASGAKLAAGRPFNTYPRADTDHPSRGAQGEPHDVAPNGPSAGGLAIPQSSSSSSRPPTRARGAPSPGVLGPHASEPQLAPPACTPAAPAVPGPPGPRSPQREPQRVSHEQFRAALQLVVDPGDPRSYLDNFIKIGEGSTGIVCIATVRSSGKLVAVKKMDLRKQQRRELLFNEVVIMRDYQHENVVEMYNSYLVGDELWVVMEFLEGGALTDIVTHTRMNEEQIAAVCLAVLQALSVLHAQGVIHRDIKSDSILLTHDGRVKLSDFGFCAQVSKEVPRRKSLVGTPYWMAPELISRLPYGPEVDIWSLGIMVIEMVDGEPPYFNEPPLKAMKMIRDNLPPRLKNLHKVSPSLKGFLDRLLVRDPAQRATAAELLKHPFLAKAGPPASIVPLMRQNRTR", "assay": "ExpresS Diversity Kinase Profile, Cerep (LANCE): PAK4", "type": "biochemical"}, "[1]": {"assay": "Dynamic light scattering (colloidal aggregation)", "type": "physicochemical", "conditions": "for Count rate (kcps): 25 °C"}, "EP3": {"biological_target": "T2, EP3 (Homo sapiens, UniProt P43115)", "T2 sequence (P43115 1-390)": "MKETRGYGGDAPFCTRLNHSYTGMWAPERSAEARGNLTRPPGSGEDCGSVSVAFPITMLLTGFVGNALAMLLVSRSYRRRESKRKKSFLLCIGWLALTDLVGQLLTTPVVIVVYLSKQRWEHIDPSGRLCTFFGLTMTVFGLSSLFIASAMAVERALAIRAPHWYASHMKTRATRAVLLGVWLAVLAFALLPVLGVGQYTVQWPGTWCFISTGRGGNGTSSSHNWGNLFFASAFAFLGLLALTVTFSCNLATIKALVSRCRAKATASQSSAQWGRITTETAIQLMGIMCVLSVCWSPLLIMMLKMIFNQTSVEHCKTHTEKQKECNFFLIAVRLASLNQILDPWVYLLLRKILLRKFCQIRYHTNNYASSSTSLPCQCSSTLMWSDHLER", "assay": "EP3 functional agonist assay, Cerep (impedance)"}, "EP4": {"biological_target": "EP4 (Homo sapiens, UniProt P35408)", "sequence (P35408 whole entry)": "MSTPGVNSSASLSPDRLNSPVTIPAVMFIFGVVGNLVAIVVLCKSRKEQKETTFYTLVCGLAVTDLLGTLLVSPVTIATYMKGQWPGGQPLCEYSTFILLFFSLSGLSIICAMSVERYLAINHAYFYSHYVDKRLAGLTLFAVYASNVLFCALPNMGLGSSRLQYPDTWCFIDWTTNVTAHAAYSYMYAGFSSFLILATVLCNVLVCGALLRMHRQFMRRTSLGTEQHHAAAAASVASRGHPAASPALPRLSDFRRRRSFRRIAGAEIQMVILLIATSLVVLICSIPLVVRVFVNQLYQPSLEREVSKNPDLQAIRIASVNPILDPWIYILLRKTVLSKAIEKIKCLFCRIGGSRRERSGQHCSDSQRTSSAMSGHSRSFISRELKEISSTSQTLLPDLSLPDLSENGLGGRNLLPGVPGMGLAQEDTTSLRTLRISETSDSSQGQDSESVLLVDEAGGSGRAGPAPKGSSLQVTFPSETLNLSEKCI", "assay": "EP4 functional agonist assay, Cerep (cAMP, HTRF)"}, "12-LO": {"biological_target": "T3, 12-LO (Homo sapiens, UniProt P18054)", "T3 sequence (P18054 1-663)": "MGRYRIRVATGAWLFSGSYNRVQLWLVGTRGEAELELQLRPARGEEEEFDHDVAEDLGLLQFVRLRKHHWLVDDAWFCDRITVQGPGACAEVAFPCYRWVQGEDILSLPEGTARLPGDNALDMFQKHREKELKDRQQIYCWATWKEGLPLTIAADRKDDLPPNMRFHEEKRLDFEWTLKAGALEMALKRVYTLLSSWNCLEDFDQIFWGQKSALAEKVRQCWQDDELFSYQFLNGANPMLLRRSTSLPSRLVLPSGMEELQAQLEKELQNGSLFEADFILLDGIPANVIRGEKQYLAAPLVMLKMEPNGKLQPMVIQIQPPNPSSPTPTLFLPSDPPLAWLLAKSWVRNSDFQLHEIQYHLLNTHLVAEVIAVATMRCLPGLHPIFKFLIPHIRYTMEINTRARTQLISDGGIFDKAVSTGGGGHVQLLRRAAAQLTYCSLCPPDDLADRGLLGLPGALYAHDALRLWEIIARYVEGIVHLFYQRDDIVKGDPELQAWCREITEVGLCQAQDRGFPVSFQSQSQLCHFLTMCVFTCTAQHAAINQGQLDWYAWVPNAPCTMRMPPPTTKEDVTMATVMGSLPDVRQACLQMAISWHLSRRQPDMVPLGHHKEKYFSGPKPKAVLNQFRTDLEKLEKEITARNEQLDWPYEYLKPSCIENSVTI", "assay": "12-LO inhibition assay, Cerep (Method A, photometry)", "type": "biochemical"}, "[2]": {"conditions": "n = 2, read-out: % Inhibition of control values, Mean"}, "[3]": {"conditions": "read-out: % Inhibition of control values, 1st measurement"}, "[4]": {"conditions": "read-out: % Inhibition of control values, 2nd measurement"}, "[5]": {"conditions": "Flag: Interference, read-out: % Inhibition of control values, 1st measurement"}, "[6]": {"conditions": "Flag: Interference, read-out: % Inhibition of control values, 2nd measurement"}, "[7]": {"conditions": "n = 2, Flag: Interference, read-out: % Inhibition of control values, Mean"}, "[8]": {"conditions": "read-out: % of control values, 1st measurement"}, "[9]": {"conditions": "read-out: % of control values, 2nd measurement"}, "[10]": {"conditions": "read-out: % of control values, Mean"}}, "note": "Where two headings read alike, the source gives them in different places."}
{"smiles": "CC1(C)CCC2=C(O1)c1ccccc1C(=O)C2=O", "note": "[β-Lapachone]", "values": [{"measurement": "inhibition at 150 µM", "setting": "PLK1; [2]", "result": 60, "unit": "%"}, {"measurement": "inhibition at 150 µM", "setting": "PLK1; [3]", "result": 61.1, "unit": "%"}, {"measurement": "inhibition at 150 µM", "setting": "PLK1; [4]", "result": 58.9, "unit": "%"}, {"measurement": "inhibition at 150 µM", "setting": "FGFR2; [5]", "result": 44.8, "unit": "%"}, {"measurement": "inhibition at 150 µM", "setting": "FGFR2; [6]", "result": 55.2, "unit": "%"}, {"measurement": "inhibition at 150 µM", "setting": "FGFR2; [7]", "result": 50, "unit": "%"}, {"measurement": "inhibition at 150 µM", "setting": "TRKA; [5]", "result": 38.1, "unit": "%"}, {"measurement": "inhibition at 150 µM", "setting": "TRKA; [6]", "result": 45.7, "unit": "%"}, {"measurement": "inhibition at 150 µM", "setting": "TRKA; [7]", "result": 41.9, "unit": "%"}, {"measurement": "IC50", "setting": "EP2", "result": "~100", "unit": "µM"}, {"measurement": "inhibition at 150 µM", "setting": "EphA3; [2]", "result": 65.1, "unit": "%"}, {"measurement": "inhibition at 150 µM", "setting": "EphA3; [3]", "result": 66.8, "unit": "%"}, {"measurement": "inhibition at 150 µM", "setting": "EphA3; [4]", "result": 63.3, "unit": "%"}, {"measurement": "inhibition at 150 µM", "setting": "PAK4; [2]", "result": -1.9, "unit": "%"}, {"measurement": "inhibition at 150 µM", "setting": "PAK4; [3]", "result": -3.7, "unit": "%"}, {"measurement": "inhibition at 150 µM", "setting": "PAK4; [4]", "result": 0, "unit": "%"}, {"measurement": "Count rate (kcps)", "setting": "[1]; 25 µM in H2O + 0.1% DMSO", "result": 60.7, "unit": "kcps"}, {"measurement": "Count rate (kcps)", "setting": "[1]; 50 µM in H2O + 0.1% DMSO", "result": 47.6, "unit": "kcps"}, {"measurement": "Count rate (kcps)", "setting": "[1]; 100 µM in H2O + 0.1% DMSO", "result": 136.1, "unit": "kcps"}, {"measurement": "aggregation by dynamic light scattering", "setting": "[1]; at relevant concentrations", "result": "no aggregation"}, {"measurement": "remaining activity at 150 µM", "setting": "EP3; [8]", "result": 18.6, "unit": "%"}, {"measurement": "remaining activity at 150 µM", "setting": "EP3; [9]", "result": 15.5, "unit": "%"}, {"measurement": "remaining activity at 150 µM", "setting": "EP3; [10]", "result": 17, "unit": "%"}, {"measurement": "IC50", "setting": "EP4", "result": "~100", "unit": "µM"}, {"measurement": "remaining activity at 150 µM", "setting": "EP4; [8]", "result": 54.6, "unit": "%"}, {"measurement": "remaining activity at 150 µM", "setting": "EP4; [9]", "result": 51.7, "unit": "%"}, {"measurement": "remaining activity at 150 µM", "setting": "EP4; [10]", "result": 53.1, "unit": "%"}, {"measurement": "inhibition at 5 µM", "setting": "12-LO; 12-LO, 5 µM, read-out: % inhibition of control values, 1st measure", "result": 40.7, "unit": "%"}, {"measurement": "inhibition at 5 µM", "setting": "12-LO; 12-LO, 5 µM, read-out: % inhibition of control values, 2nd measure", "result": 35.3, "unit": "%"}, {"measurement": "inhibition at 5 µM", "setting": "12-LO; read-out: % inhibition of control values, Mean", "result": 38, "unit": "%"}]}
